Assay type in all cases: binding
Assay [1] deals with T1, ARL2 (Homo sapiens, UniProt P36404). The experiment in a line: HDX-MS.
Assay [2] addresses T1, ARL2. Briefly: radioligand nitrocellulose filter trapping.
Assay [3] has as its target T1, ARL2. The experiment in a line: real-time mant fluorescence association/dissociation kinetics.

T1 sequence (P36404 2-184): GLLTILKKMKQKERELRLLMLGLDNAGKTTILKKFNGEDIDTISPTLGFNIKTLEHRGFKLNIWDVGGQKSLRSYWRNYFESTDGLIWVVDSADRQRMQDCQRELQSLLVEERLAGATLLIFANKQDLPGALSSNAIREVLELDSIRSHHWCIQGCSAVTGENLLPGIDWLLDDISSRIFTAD

Regarding `Nc1nc2c(ncn2[C@@H]2O[C@H](COP(=O)(O)OP(=O)(O)O)[C@@H](O)[C@H]2O)c(=O)[nH]1` [GDP], in assay [1], the HDX-MS result is “addition of GDP to ARL2 (apo→GDP) resulted in large protection to deuterium uptake at the conserved nucleotide-binding motifs G1 and G4”. As to `Nc1nc2c(ncn2[C@@H]2O[C@H](COP(=O)(O)OP(=O)(O)OP(O)(O)=S)[C@@H](O)[C@H]2O)c(=O)[nH]1` [GTPγS], the “radioligand nitrocellulose filter trapping; HDX-MS” value in assay [2] is “Human ARL2 monomer, exogenously expressed and purified from E. coli or HEK cells, bound GTPγS to similar stoichiometries”. mant-Gpp(NH)p displayed a Kd in assay [3] of 590 nM.

Source of the values: article PMC5693757 (Journal of molecular biology, 2017).
